According to publication PMC12823391 (Nature, 2025):

Key:
[1] = molecular target: T1, MBP–NLRX1 (87–975 amino acids) (Homo sapiens, UniProt Q86UT6); test: biotin-acyl-CoA pull-down, immunoblot; assay type: binding; details: labelled compound (biotin conjugate)
[2] = molecular target: T1, MBP–NLRX1 (87–975 amino acids); test: biotin-CoASH pull-down and competition with CoASH, immunoblot; assay type: binding; details: labelled compound; unlabelled CoASH as competitor
[3] = molecular target: endogenous NLRX1 (HeLa cell lysate) (Homo sapiens, UniProt Q86UT6); test: cellular thermal shift assay on lysate, immunoblot; assay type: biochemical; details: 500 µM AcCoA, 44.6-65 °C, 3 min
Chain of endogenous NLRX1 (HeLa cell lysate) (Q86UT6 87-975): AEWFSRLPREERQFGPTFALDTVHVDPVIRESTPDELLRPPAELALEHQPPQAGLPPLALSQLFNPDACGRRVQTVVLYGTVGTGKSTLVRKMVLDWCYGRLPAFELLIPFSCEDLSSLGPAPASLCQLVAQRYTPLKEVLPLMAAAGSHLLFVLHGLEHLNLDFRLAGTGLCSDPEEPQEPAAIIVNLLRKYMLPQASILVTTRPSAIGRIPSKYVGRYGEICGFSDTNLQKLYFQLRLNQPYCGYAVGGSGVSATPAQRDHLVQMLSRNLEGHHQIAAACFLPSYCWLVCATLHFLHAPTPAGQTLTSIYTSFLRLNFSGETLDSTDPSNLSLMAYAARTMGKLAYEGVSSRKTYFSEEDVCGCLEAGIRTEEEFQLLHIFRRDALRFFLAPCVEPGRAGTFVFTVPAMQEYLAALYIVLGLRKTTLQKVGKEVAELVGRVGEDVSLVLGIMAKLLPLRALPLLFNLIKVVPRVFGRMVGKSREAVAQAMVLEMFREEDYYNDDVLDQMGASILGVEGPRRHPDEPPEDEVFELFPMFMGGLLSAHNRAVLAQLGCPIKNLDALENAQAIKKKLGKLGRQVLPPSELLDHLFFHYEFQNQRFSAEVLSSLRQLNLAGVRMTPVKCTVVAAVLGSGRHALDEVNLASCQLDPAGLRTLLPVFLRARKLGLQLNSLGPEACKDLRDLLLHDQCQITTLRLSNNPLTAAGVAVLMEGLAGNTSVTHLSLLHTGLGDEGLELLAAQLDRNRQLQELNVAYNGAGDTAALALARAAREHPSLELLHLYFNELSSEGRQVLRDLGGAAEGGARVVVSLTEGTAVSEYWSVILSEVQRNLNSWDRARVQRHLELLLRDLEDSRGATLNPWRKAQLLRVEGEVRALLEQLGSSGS

[4] = molecular target: T1, MBP–NLRX1 (87–975 amino acids); test: competition of AcCoA with biotin-AcCoA pull-down, immunoblot; assay type: binding; details: unlabelled AcCoA as competitor

T1 sequence (Q86UT6 87-975): as above

## CC(C)(COP(=O)(O)OP(=O)(O)OC[C@H]1O[C@@H](n2cnc3c(N)ncnc32)[C@H](O)[C@@H]1OP(=O)(O)O)[C@@H](O)C(=O)NCCC(=O)NCCSC(=O)CC(=O)O [malonyl-CoA]
[1]
  biotin-acyl-CoA pull-down, immunoblot: no interaction between recombinant NLRX1 and malonyl-CoA or succinyl-CoA was detected

## CC(C)(COP(=O)(O)OP(=O)(O)OC[C@H]1O[C@@H](n2cnc3c(N)ncnc32)[C@H](O)[C@@H]1OP(=O)(O)O)[C@@H](O)C(=O)NCCC(=O)NCCS [CoASH]
[2]
  biotin-CoASH pull-down and competition with CoASH, immunoblot: CoASH was associated with recombinant NLRX1 to a lesser extent than AcCoA was

## CC(=O)SCCNC(=O)CCNC(=O)[C@H](O)C(C)(C)COP(=O)(O)OP(=O)(O)OC[C@H]1O[C@@H](n2cnc3c(N)ncnc32)[C@H](O)[C@@H]1OP(=O)(O)O [AcCoA]
[3]
  thermal shift: AcCoA addition substantially increased the stability of NLRX1 protein level compared with CoASH
[4]
  competition of AcCoA with biotin-AcCoA pull-down, immunoblot: increasing concentrations of AcCoA competed with biotin–AcCoA for NLRX1 binding

## CC(C)(COP(=O)(O)OP(=O)(O)OC[C@H]1O[C@@H](n2cnc3c(N)ncnc32)[C@H](O)[C@@H]1OP(=O)(O)O)[C@@H](O)C(=O)NCCC(=O)NCCSC(=O)CCC(=O)O [succinyl-CoA]
[1]
  biotin-acyl-CoA pull-down, immunoblot: no interaction between recombinant NLRX1 and malonyl-CoA or succinyl-CoA was detected
